“Also recorded” adds a separate entry of the source.
Columns and labels:
[1] = test system: Draining lymph node (DLN) cells; experiment: Draining lymph node cells of treated EAE mice restimulated with MOG35-55, cytokine ELISA; assay type: in vivo, C57BL/6J (B6) mice; conditions: DLN cells collected D20, restimulated with MOG35-55 for 3 days
Source text: Female B6 mice were immunized for EAE as described for FIG. 1 and treated daily with carrier or SB. On D30 post-immunization, CNS (brain and spinal cord) cells were harvested and analyzed by intracellular staining and flow cytometry. Relative percentages (out of CD4+TCRβ+ population) of IL-17+, IFN-γ+, or IL-17+ IFN-γ+ cells (FIG. 2A), and percentages of CD4+TCRβ+ cells (out of CD45+ cells) (FIG. 2B). DLN cells were collected on D20 and restimulated with MOG35-55 for 3 days. Production of IFN-γ+(FIG. 2C) or IL-17 (FIG. 2D) was assessed by ELISA.
EAE was induced in female C57BL/6J mice as described previously (Noubade et al., 2007, J Clin Invest., 117(11):3507-3518). […]
To examine the mechanism of EAE prevention by SB, the TH1 and TH17 effector subsets were analyzed in treated female mice. […] On D30 post-immunization, CNS (brain and spinal cord) cells were harvested and analyzed by intracellular staining and flow cytometry. […] Draining lymph node (DLN) cells were collected on D20 and restimulated with MOG35-55 for 3 days, and production of IFN-γ and IL-17 was assessed by ELISA.

[2] = test system: Naïve CD4+ T cells cultured under TH17 polarizing conditions; experiment: In vitro TH17 differentiation of CD4+ T cells, IL-17 production; assay type: cell-based, mice; conditions: 3 days
Experimental: Naïve CD4+ T cells were purified by negative selection and cultured under TH17 polarizing conditions for 3 days in the presence of SB20350 (5 μM if not otherwise indicated). IL-17 secretion was analyzed by ELISA (FIG. 3A). Relative IL-17 mRNA was assessed by qRT-PCR (FIG. 3B). IL-17 levels were assessed using intracellular staining and flow cytometry (FIG. 3C).
Total CD4 T cells were isolated from spleen and lymph nodes as previously described (Noubade et al., 2007, J Clin Invest., 117(11):3507-3518), by negative selection for CD8-, MHC class II-, NK1.1- and CD11b-positive cells using magnetic beads from QIAGEN. For FACS sorting, negatively selected CD4 T cells were stained with anti-TCRβ-allophycocyanin and anti-CD4-Texas Red (Invitrogen), and sorted using a FACSAria cell sorting system (BD Biosciences). Th17 CD4 T cells were generated by activating total CD4 T cells (1×10^6 cells/mL) in RPMI containing 10% FBS (Hyclone), with plate bound anti-CD3 (5 μg/mL) and soluble anti-CD28 (1 μg/mL) mAbs from BD Pharmingen in the presence of 1 ng/mL TGFβ (PeproTech Inc), 30 ng/mL IL-6 (R&D Systems), 10 μg/mL anti-IFNγ, and 10 μg/mL anti-IL-4 mAbs. […]
For intracellular cytokine staining, either FACS-sorted or total CD4 T cells polarized to Th17 cells in the absence or the presence of 5 μM SB203580 were stimulated with 5 ng/mL PMA, 250 ng/mL ionomycin, and 2 μM monensin (Sigma-Aldrich) for the last 4 hours of culture. […] Cells were collected using a LSR II cytometer (BD Biosciences) and analyzed using FlowJo software (TreeStar Inc).
Total RNA was extracted from CD4 T cells using RNeasy RNA isolation reagent (QIAGEN) as recommended by the manufacturer. The generated cDNA was used in quantitative real-time PCR using the assay-on-demand (AOD) TaqMan probe and primers for IL-17A and β2-microglobulin (Applied Biosystems). β2-microglobulin was used as a reference gene and relative mRNA levels were calculated using the comparative CT method.
IL-17 production was analyzed by various methods including ELISA, qRT-PCR, and intracellular staining and flow cytometry.

Structure (SMILES): C[S+]([O-])c1ccc(-c2nc(-c3ccncc3)c(-c3ccc(F)cc3)[nH]2)cc1 (centres unmarked) [SB203580]
- IFN-γ production (ELISA) [1]: did not decrease
- IL-17 production (ELISA) [1]: specifically inhibited IL-17 production
- Cellular IL-17 protein levels (intracellular staining, flow cytometry) ([2]; 5 μM): decreased
- IL-17 mRNA levels (qRT-PCR) ([2]; 5 μM): not significantly affected
- IL-17 production / secretion (ELISA) ([2]; inhibitor present, listed as SB): suppressed IL-17 production in a dose-dependent manner; also recorded: decreased; also recorded: reduced IL-17 production in vitro; also recorded: inhibits IL-17 production at a post-transcriptional level
